Test results from patent publication US12011517B2, “Air freshening product” (The Procter & Gamble Company, priority 2019, dated 2024).

SMILES	Average Vapor Pressure (Torr) at 25 degrees Celsius
CCCCCCC/C=C/C=O [(E)-2-Decen-1-al]	0.0674 Torr
CCC/C=C/C=O [(E)-2-Hexen-1-al]	10.7 Torr
